Measurements: patent publication US20240383911A1, “AZAINDAZOLE MACROCYCLE COMPOUNDS AND USES THEREOF” (BROADENBIO CO., LTD, priority 2021, published 2024)

Tests used:
HPK1 = HPK1 (Homo sapiens, UniProt Q92918); assay: HPK1 kinase activity inhibition test (ADP-Glo, luminescence); format: biochemical; settings: 2 μM ATP, 5 nM HPK1, read-out: IC50, inhibitory effects on HPK1 kinase activity
Procedure: The kinase activity of HPK1 is manifested as activity of autophosphorylation and phosphorylation of downstream substrates. In the process of autophosphorylation, additional substrates are not required, and ATP is consumed to generate ADP. The amount of the product is measured by ADP-Glo reagent and luminescence method to reflect kinase activity.
(§1) Tested compounds: compounds prepared in the Examples of this invention.
Preparation of compound stock solution: dissolve the test compound in 100% DMSO to make a 10 mM stock solution;
Preparation of 4×Kinase Reaction Buffer:
Preparation of 2×HPK1 Kinase Solution:
Preparation of 4×ATP Mixture:
Dilute the stock solution of the test compound by 5 times with 100% DMSO, make a 4-fold equal dilution in a 96-well dilution plate, add 1 μL of the compound to 49 μL of kinase reaction buffer, and shake on a microplate shaker for 20 minutes. Transfer 2 μL of 2×HPK1 kinase solution to 384 reaction plate, add 1 μL of the test compound to the 384 reaction plate (Greiner, Cat #784075), centrifuge for 1 minute (1000 rpm/min), incubate at 25° C. for 10 minutes. Transfer 1 μL of the 4×ATP mixture to a 384 reaction plate, centrifuge for 1 minute (1000 rpm/min), and incubate at 25° C. for 60 minutes. In the reaction system, the final concentration of DMSO is 0.5%. Transfer 4 μL of ADP-Glo to a 384 reaction plate, centrifuge for 1 minute (1000 rpm/min), and incubate at 25° C. for 40 minutes. Transfer 8 μL detection solution to a 384 reaction plate, centrifuge for 1 minute (1000 rpm/min), and incubate at 25° C. for 40 minutes. The […] is read using a Biotek multi-function plate reader, and the IC50 (half inhibitory concentration) of the compound is obtained using a four-coefficient nonlinear fitting formula.

Human Jurkat-E6-1 cells = assay: Detection of IL-2 production by Jurkat cells using ELISA; format: cell-based; settings: anti-CD3/anti-CD28 stimulation 24 hours, read-out: Percentage of the amount of IL-2 secreted by compound treated vs DMSO-treated cells; for activity at 0.33 µM: tested compound 0.33 μM; for activity at 1 µM: tested compound 1.0 μM
Procedure: as §1
Human Jurkat-E6-1 cells were incubated with various concentrations of tested compounds for 30 minutes in a humidified incubator at 37° C. and 5% CO2. Cells were transferred to cell culture plates pre-coated with anti-human CD3 antibody, then soluble anti-human CD28 antibody was added, and cells were stimulated for 24 hours at 37° C. and 5% CO2 in a humidified incubator. The cell culture medium was collected after centrifugation, and was then transferred to a 96-well transparent microtiter plate (Thermo) pre-coated with anti-human IL-2 antibody, incubated at room temperature for 2 hours with gently shaking, washed with washing buffer for 4 times, and then followed the ELISA MAX Deluxe Set Human IL-2 (BioLegend) kit procedures, used a microplate reader (Molecular Device, i3X) to read the GD value at 450 nm. The best standard curve was selected by the microplate reader application software, and the corresponding concentration was calculated according to the GD value of the standard. Results are expressed as a percentage (%) of the amount of IL-2 secreted by compound-treated vs DMSO-treated cells.

Chain of HPK1 (Q92918 whole entry): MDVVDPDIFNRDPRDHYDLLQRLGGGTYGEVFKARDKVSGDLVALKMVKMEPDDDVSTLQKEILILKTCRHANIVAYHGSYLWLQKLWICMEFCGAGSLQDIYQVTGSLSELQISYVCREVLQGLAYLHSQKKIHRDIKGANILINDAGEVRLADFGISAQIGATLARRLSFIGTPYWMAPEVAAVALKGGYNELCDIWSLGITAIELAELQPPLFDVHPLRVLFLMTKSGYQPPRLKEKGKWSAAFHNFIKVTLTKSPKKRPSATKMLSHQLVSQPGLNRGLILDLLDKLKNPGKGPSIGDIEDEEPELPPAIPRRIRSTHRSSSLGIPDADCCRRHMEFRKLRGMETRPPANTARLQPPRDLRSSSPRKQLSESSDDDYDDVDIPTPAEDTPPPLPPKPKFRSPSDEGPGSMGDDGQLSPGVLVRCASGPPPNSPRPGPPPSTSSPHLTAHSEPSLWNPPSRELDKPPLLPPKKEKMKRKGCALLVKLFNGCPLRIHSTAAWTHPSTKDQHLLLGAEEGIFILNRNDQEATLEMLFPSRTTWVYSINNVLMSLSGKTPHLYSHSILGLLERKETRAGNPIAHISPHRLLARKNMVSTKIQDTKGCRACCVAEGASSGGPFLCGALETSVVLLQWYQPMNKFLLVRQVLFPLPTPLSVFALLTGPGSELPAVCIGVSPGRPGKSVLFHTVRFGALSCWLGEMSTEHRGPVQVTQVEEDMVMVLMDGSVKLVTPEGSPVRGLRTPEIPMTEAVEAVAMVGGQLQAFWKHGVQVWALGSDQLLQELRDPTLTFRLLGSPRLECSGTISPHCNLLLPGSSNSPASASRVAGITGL

Row | Compound | IC50 (HPK1) | activity at 0.33 µM (Human Jurkat-E6-1 cells) | activity at 1 µM (Human Jurkat-E6-1 cells) | activity at 3 µM (Human Jurkat-E6-1 cells; tested compound 3.0 μM)
1 | CN1CCN(c2ccc3cc2OCCCOc2cccc(F)c2-c2cc4c-3n[nH]c4cn2)C[C@H]1CO [Compound 131, [(2S)-4-{16-fluoro-7,11-dioxa-19,22,23-triazapentacyclo[16.5.2.1^2,6.0^12,17.0^21,24]hexacosa-1(23),2,4,6(26),12(17),13,15,18,20,24-decaen-5-yl}-1-methylpiperazin-2-yl]methanol] | ≤ 5 nM | – | – | –
2 | CN1CCN(c2ccc3cc2OCCCOc2cccc(F)c2-c2cc4c-3n[nH]c4cn2)CC1(C)C [Compound 143, 16-fluoro-5-(3,3,4-trimethylpiperazin-1-yl)-7,11-dioxa-19,22,23-triazapentacyclo[16.5.2.1^2,6.0^12,17.0^21,24]hexacosa-1(23),2,4,6(26),12(17),13,15,18,20,24-decaene] | ≤ 5 nM | – | – | –
3 | CN1C[C@H]2C[C@@H]1CN2c1ccc2cc1OCCCOCc1cccc(F)c1-c1cc3c-2n[nH]c3cn1 [Compound 152, 17-fluoro-5-[(1R,4R)-5-methyl-2,5-diazabicyclo[2.2.1]heptan-2-yl]-7,11-dioxa-20,23,24-triazapentacyclo[17.5.2.1^2,6.0^13,18.0^22,25]heptacosa-1(24),2,4,6(27),13(18),14,16,19,21,25-decaene] | ≤ 5 nM | 432% | – | –
4 | Fc1cccc2c1-c1cc3c(n[nH]c3cn1)-c1ccc(N3CC4CC(C3)N4CC3CCOCC3)c(c1)OCCCO2 [Compound 147, 16-fluoro-5-{6-[(oxan-4-yl)methyl]-3,6-diazabicyclo[3.1.1]heptan-3-yl}-7,11-dioxa-19,22,23-triazapentacyclo[16.5.2.1^2,6.0^12,17.0^21,24]hexacosa-1(23),2,4,6(26),12(17),13,15,18,20,24-decaene] | ≤ 5 nM | 429% | – | –
5 | O[C@@H]1COc2cc(ccc2N2CCN3CCOC[C@H]3C2)-c2n[nH]c3cnc(cc23)-c2c(F)cccc2OC1 [Compound 120, (9S)-5-[(9aR)-octahydropyrazino[2,1-c][1,4]oxazin-8-yl]-16-fluoro-7,11-dioxa-19,22,23-triazapentacyclo[16.5.2.1^2,6.0^12,17.0^21,24]hexacosa-1(23),2,4,6(26),12(17),13,15,18,20,24-decaen-9-ol] | ≤ 5 nM | – | 494% | –
6 | CN1C2CC1CN(c1ccc3cc1OCCCOCc1cccc(F)c1-c1cc4c-3n[nH]c4cn1)C2 [Compound 116, 17-fluoro-5-{6-methyl-3,6-diazabicyclo[3.1.1]heptan-3-yl}-7,11-dioxa-20,23,24-triazapentacyclo[17.5.2.1^2,6.0^13,18.0^22,25]heptacosa-1(24),2,4,6(27),13(18),14,16,19,21,25-decaene] | ≤ 5 nM | 450% | – | –
7 | CN1C2CC1CN(c1ccc3cc1OCCCOc1cccc(F)c1-c1cc4c-3n[nH]c4cn1)C2 [Compound 117, 16-fluoro-5-{6-methyl-3,6-diazabicyclo[3.1.1]heptan-3-yl}-7,11-dioxa-19,22,23-triazapentacyclo[16.5.2.1^2,6.0^12,17.0^21,24]hexacosa-1(23),2,4,6(26),12(17),13,15,18,20,24-decaene] | ≤ 5 nM | – | 525% | –
8 | CN1CCN(c2ccc3cc2OCCCCCc2cccc(F)c2-c2cc4c-3n[nH]c4cn2)CC1 [Compound 101, 17-fluoro-5-(4-methylpiperazin-1-yl)-7-oxa-20,23,24-triazapentacyclo[17.5.2.1^2,6.0^13,18.0^22,25]heptacosa-1(24),2(27),3,5,13(18),14,16,19,21,25-decaene] | ≤ 5 nM | 257% | – | –
9 | CN1C2CCC1CN(c1ccc3cc1OCCCOCc1cccc(F)c1-c1cc4c-3n[nH]c4cn1)C2 [Compound 18, 17-fluoro-5-{8-methyl-3,8-diazabicyclo[3.2.1]octan-3-yl}-7,11-dioxa-20,23,24-triazapentacyclo[17.5.2.1^2,6.0^13,18.0^22,25]heptacosa-1(24),2,4,6(27),13(18),14,16,19,21,25-decaene] | ≤ 5 nM | 486% | – | –
10 | Fc1cccc2c1-c1cc3c(n[nH]c3cn1)-c1ccc(N3C[C@@H]4C[C@H]3CN4C3COC3)c(c1)OCCCO2 [Compound 142, 16-fluoro-5-[(1S,4S)-5-(oxetan-3-yl)-2,5-diazabicyclo[2.2.1]heptan-2-yl]-7,11-dioxa-19,22,23-triazapentacyclo[16.5.2.1^2,6.0^12,17.0^21,24]hexacosa-1(23),2,4,6(26),12(17),13,15,18,20,24-decaene] | 5 to 50 nM | – | – | –
11 | Fc1cccc2c1-c1cc3c(n[nH]c3cn1)-c1cnc(N3CCOCC3)c(c1)OCCCO2 [Compound 4, 16-fluoro-5-(morpholin-4-yl)-7,11-dioxa-4,19,22,23-tetraazapentacyclo[16.5.2.1^2,6.0^12,17.0^21,24]hexacosa-1(23),2(26),3,5,12,14,16,18,20,24-decaene] | 5 to 50 nM | – | – | 801%
12 | CN1C[C@H]2C[C@@H]1CN2c1ccc2cc1OCCCOc1cccc(F)c1-c1cc3c-2n[nH]c3cn1 [Compound 141, 16-fluoro-5-[(1R,4R)-5-methyl-2,5-diazabicyclo[2.2.1]heptan-2-yl]-7,11-dioxa-19,22,23-triazapentacyclo[16.5.2.1^2,6.0^12,17.0^21,24]hexacosa-1(23),2,4,6(26),12(17),13,15,18,20,24-decaene] | ≤ 5 nM | – | – | –
13 | O=C1OC[C@@H]2CN(c3ccc4cc3OCCCOc3cccc(F)c3-c3cc5c-4n[nH]c5cn3)CCN12 [Compound 135, (8aS)-7-{16-fluoro-7,11-dioxa-19,22,23-triazapentacyclo[16.5.2.1^2,6.0^12,17.0^21,24]hexacosa-1(23),2,4,6(26),12(17),13,15,18,20,24-decaen-5-yl}-hexahydro-1H-[1,3]oxazolo[3,4-a]pyrazin-3-one] | ≤ 5 nM | – | – | –
14 | CN1C[C@@H]2C[C@H]1CN2c1ccc2cc1OCCCOc1cccc(F)c1-c1cc3c-2n[nH]c3cn1 [Compound 140, 16-fluoro-5-[(1S,4S)-5-methyl-2,5-diazabicyclo[2.2.1]heptan-2-yl]-7,11-dioxa-19,22,23-triazapentacyclo[16.5.2.1^2,6.0^12,17.0^21,24]hexacosa-1(23),2,4,6(26),12(17),13,15,18,20,24-decaene] | ≤ 5 nM | – | – | –
15 | CN1C[C@H]2CN(c3ccc4cc3OCCCOc3cccc(F)c3-c3cc5c-4n[nH]c5cn3)CCN2CC1=O [Compound 137, (9aR)-8-{16-fluoro-7,11-dioxa-19,22,23-triazapentacyclo[16.5.2.1^2,6.0^12,17.0^21,24]hexacosa-1(23),2,4,6(26),12(17),13,15,18,20,24-decaen-5-yl}-2-methyl-octahydro-1H-[1,4]diazino[1,2-a]pyrazin-3-one] | ≤ 5 nM | – | – | –
16 | CN1C[C@@H]2CN(c3ccc4cc3OCCCOc3cccc(F)c3-c3cc5c-4n[nH]c5cn3)CCN2CC1=O [Compound 138, (9aS)-8-{16-fluoro-7,11-dioxa-19,22,23-triazapentacyclo[16.5.2.1^2,6.0^12,17.0^21,24]hexacosa-1(23),2,4,6(26),12(17),13,15,18,20,24-decaen-5-yl}-2-methyl-octahydro-1H-[1,4]diazino[1,2-a]pyrazin-3-one] | ≤ 5 nM | – | – | –
17 | CN1CCN(c2ccc3cc2OCCCOc2cccc(F)c2-c2cc4c-3n[nH]c4cn2)C[C@@H]1CO [Compound 130, [(2R)-4-{16-fluoro-7,11-dioxa-19,22,23-triazapentacyclo[16.5.2.1^2,6.0^12,17.0^21,24]hexacosa-1(23),2,4,6(26),12(17),13,15,18,20,24-decaen-5-yl}-1-methylpiperazin-2-yl]methanol] | ≤ 5 nM | – | – | –
18 | O=C1OC[C@H]2CN(c3ccc4cc3OCCCOc3cccc(F)c3-c3cc5c-4n[nH]c5cn3)CCN12 [Compound 134, (8aR)-7-{16-fluoro-7,11-dioxa-19,22,23-triazapentacyclo[16.5.2.1^2,6.0^12,17.0^21,24]hexacosa-1(23),2,4,6(26),12(17),13,15,18,20,24-decaen-5-yl}-hexahydro-1H-[1,3]oxazolo[3,4-a]pyrazin-3-one] | ≤ 5 nM | – | – | –
